Assay results from patent US6087336A, “Peptide derivatives useful in treating autoimmune diseases” (Zeneca Limited, priority 1996, dated 2000).

Assays:
[1] = biological target: T1, HLA-DR4Dw4 (Homo sapiens, UniProt P01903+P01911, A100K/A169T/F76Y/I96L/K127E/L162R/M171V/N62H/P40V/Q125Y/R42H/S133A/S149N/S66Y/V115G/V209L/W38E); assay: Variant to Test A: peptide selectivity binding assay, HLA-DR4Dw4
T1 construct: a cDNA encoding the β chain is cloned into the transfer vector pAcUW1; made in house; host or cells: Sf21 insect cells, double-recombinant baculovirus
Method: (§1) As a variant to test A, the ability of a peptide of the invention to bind to one or more HLA-DR molecules was assessed as follows:
(§2) (i) Purification of HLA-DR Types from Cell Lines
(§3) The method used was a modification of that described by Gorga et al, 1987, J.Biol.Chem. 262, 16087-16094. Human HLA-DR antigens were purified from various cell lines by immunoaffinity chromatography. […] Protein content was determined by a Biorad protein assay and purity by SDS-PAGE electrophoresis. […]
(§4) 200 nM biotin-FHA307-320 in phosphate buffered saline (PBS) was incubated with either purified HLA-DR1, DR2, DR4Dw4, DR4Dw13 or DR4Dw14, (2-20μg/ml) in V-well microtitre plates (Nunc) with or without inhibitor peptides in assay buffer (PBS, 0.01% NP40 (Sigma.)) For DR3 inhibition, 400 nM Biotin-Ahx-(D)Ala-Ala-Ala-Che-lle-Ala-Ala-Ala-Thr-Leu-Lys-Ala-Ala-(D)Ala-OH was incubated with purified DR3 (20 μg/ml.), and incubated as above. After 48 hours, the incubates were treated, and absorbance readings taken as described in Test A. The inhibitory activity of peptides, expressed as IC50 values, was calculated using Microcal Origin software on a PC.

[2] = test system: HLA-DR4Dw14; assay: Variant to Test A: peptide selectivity binding assay, HLA-DR4Dw14; parameters: species or system Human
Method: as §1, §2, §3, §4

[3] = biological target: HLA-DR3; assay: Variant to Test A: peptide selectivity binding assay, HLA-DR3; parameters: species or system Human; details: did not bind significantly
Method: as §1, §2, §3, §4

Phv-Ala-Arg-Ala-IIb-Ala-Arg-Ala-Papa-NH2 [Example 23]
binding to HLA-DR4Dw4 [1]: bind significantly | binding to HLA-DR4Dw14 [2]: bind significantly | IC50 [3]: > 100 µM
